Test results: patent publication US6914045B2, “Glycopeptide antibiotics” (Wyeth Holdings Corporation, priority 2001, dated 2005)
Values after ≈ are worked out from the molar mass of the structure shown.

Columns and labels:
[1] = test system: Staphylococcus aureus-SMITH (GC 4543); assay: acute lethal infection in mice; type: in vivo; conditions: acute lethal infection, female CD-1 mice, intraperitoneal challenge, intravenous 30 min. after infection, 7 day survival
Summary of the method: (§1)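 Female CD-1 mice (20±2 g) got an intraperitoneal bacterial challenge lethal to untreated controls within 24–48 hr. Compound was dosed intravenously 30 min after infection, five mice per dose. ED50 was calculated from 7-day survival pooled across 3 tests.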

[2] = test system: Enterococcus faecalis (GC 6189); assay: acute lethal infection in mice; type: in vivo; conditions: female CD-1 mice, intraperitoneal challenge, intravenous 30 min. after infection, 7 day survival
Summary of the method: as §1

Streptococcus sp. = assay: in vitro antibacterial evaluation, MIC by broth dilution; type: cell-based; conditions: broth dilution, 18 hours at 35° C.
Summary of the method: (§2)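 Broth dilution per NCCLS M7-A2 in Mueller-Hinton II medium, inoculum 5×10^5 CFU/mL, antibiotic range 64-0.06 μg/mL. MIC taken as lowest concentration inhibiting growth; Gram-positive panel includes recent clinical isolates resistant to methicillin, penicillin and/or vancomycin.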

Staphylococcus sp. = assay: as above; type: cell-based; conditions: broth dilution, 18 hours at 35° C.
Summary of the method: as §2

Escherichia coli = assay: as above; type: cell-based; conditions: 18 hours at 35° C.
Summary of the method: as §2

Enterococcus sp. = assay: as above; type: cell-based; conditions: broth dilution, 18 hours at 35° C.
Summary of the method: as §2

For `CC(c1ccccc1)C1NC(=O)CNC(=O)C(CO)NC(=O)C(C(O)C2CNC(=N)N2C2OC(CO)C(O)C(O)C2O)NC(=O)C(C(O)C2CNC(=N)N2)NC(=O)C(Cc2ccc(OC3OC(CO)C(OC4OC5COC(CC6CCN(C(=O)OCc7ccccc7)CC6)OC5C(O)C4O)C(O)C3O)cc2)NC1=O` (stereo not drawn) [Example 113, Cyclo[glycyl-β-methylphenylalanyl-O-[4-O-[4,6-O-[2-[1-[(phenylmethoxy)carbonyl]piperidin-4-yl]ethylidene]hexopyranosyl]hexopyranosyl]tyrosyl-3-(2-iminoimidazolidin-4-yl)seryl-3-(3-hexopyranosyl-2-iminoimidazolidin-4-yl)serylseryl]], the median effective dose (ED50), Staphylococcus aureus-SMITH (GC 4543) [1] was 0.26 mg/kg, the median effective dose (ED50), Enterococcus faecalis (GC 6189) [2] was 1.04 mg/kg and the “MIC Streptococcus agalactiae (GC 4564)” value (Streptococcus sp.; Streptococcus agalactiae (GC 4564)) was 0.12 µg/mL (≈ 0.078 µM). For the same compound, the “MIC Streptococcus pneumoniae (ATCC 6301)” value (Streptococcus sp.; Streptococcus pneumoniae (ATCC 6301)) was less than 0.06 µg/mL, the “MIC Streptococcus pneumoniae (GC 1894)” value (Streptococcus sp.; Streptococcus pneumoniae (GC 1894)) was less than 0.06 µg/mL and the “MIC Streptococcus pneumoniae (GC 4565)” value (Streptococcus sp.; Streptococcus pneumoniae (GC 4565)) was less than 0.06 µg/mL. For the same compound, the “MIC Streptococcus pyogenes (GC 4563)” value (Streptococcus sp.; Streptococcus pyogenes (GC 4563)) was less than 0.06 µg/mL, the “MIC Streptococcus pneumoniae (ATCC 6301)” value (Streptococcus sp.; strain ATCC 6301) was less than 0.06 µg/mL and the “MIC Streptococcus pneumoniae (GC 1894)” value (Streptococcus sp.; strain GC 1894) was less than 0.06 µg/mL. For the same compound, the “MIC Streptococcus pyogenes (GC 4563)” value (Streptococcus sp.; strain GC 4563) was less than 0.06 µg/mL, the “MIC Streptococcus agalactiae (GC 4564)” value (Streptococcus sp.; strain GC 4564) was 0.12 µg/mL (≈ 0.078 µM) and the “MIC Streptococcus pneumoniae (GC 4565)” value (Streptococcus sp.; strain GC 4565) was less than 0.06 µg/mL. For the same compound, the “MIC Coagulase Negative Staphylococcus (GC 4547)” value (Staphylococcus sp.) was 1 µg/mL (≈ 0.65 µM), the “MIC Coagulase Negative Staphylococcus (GC 4548)” value (Staphylococcus sp.) was 0.5 µg/mL (≈ 0.325 µM) and the “MIC Coagulase Negative Staphylococcus (GC 4549)” value (Staphylococcus sp.) was 1 µg/mL (≈ 0.65 µM). The “MIC Coagulase Negative Staphylococcus (GC 4551)” value (Staphylococcus sp.) was 1 µg/mL (≈ 0.65 µM), the “MIC Coagulase Negative Staphylococcus (GC 6257)” value (Staphylococcus sp.) was 0.5 µg/mL (≈ 0.325 µM) and the “MIC Staphylococcus aureus (ATCC 29213)” value (Staphylococcus sp.) was 1 µg/mL (≈ 0.65 µM). For the same compound, the “MIC Staphylococcus aureus (GC 1131)” value (Staphylococcus sp.) was 2 µg/mL (≈ 1.3 µM), the “MIC Staphylococcus aureus (GC 3051)” value (Staphylococcus sp.) was 1 µg/mL (≈ 0.65 µM) and the “MIC Staphylococcus aureus (GC 3053)” value (Staphylococcus sp.) was 1 µg/mL (≈ 0.65 µM). The “MIC Staphylococcus aureus (GC 4541)” value (Staphylococcus sp.) was 1 µg/mL (≈ 0.65 µM), the “MIC Staphylococcus aureus (GC 4542)” value (Staphylococcus sp.) was 1 µg/mL (≈ 0.65 µM) and the “MIC Staphylococcus aureus (GC 4544)” value (Staphylococcus sp.) was 2 µg/mL (≈ 1.3 µM). The “MIC Staphylococcus aureus (GC 4545)” value (Staphylococcus sp.) was 1 µg/mL (≈ 0.65 µM), the “MIC Staphylococcus aureus-SMITH (GC 4543)” value (Staphylococcus sp.) was 1 µg/mL (≈ 0.65 µM) and the “MIC Staphylococcus haemolyticus (GC 4546)” value (Staphylococcus sp.) was 1 µg/mL (≈ 0.65 µM). For the same compound, the “MIC Staphylococcus aureus (GC 1131)” value (Staphylococcus sp.; inoculum 5×10^5 CFU/mL, strain GC 1131) was 2 µg/mL (≈ 1.3 µM), the “MIC Staphylococcus aureus (ATCC 29213)” value (Staphylococcus sp.; strain ATCC 29213) was 1 µg/mL (≈ 0.65 µM) and the “MIC Staphylococcus aureus (GC 3051)” value (Staphylococcus sp.; strain GC 3051) was 1 µg/mL (≈ 0.65 µM). The “MIC Staphylococcus aureus (GC 3053)” value (Staphylococcus sp.; strain GC 3053) was 1 µg/mL (≈ 0.65 µM), the “MIC Staphylococcus aureus (GC 4541)” value (Staphylococcus sp.; strain GC 4541) was 1 µg/mL (≈ 0.65 µM) and the “MIC Staphylococcus aureus (GC 4542)” value (Staphylococcus sp.; strain GC 4542) was 1 µg/mL (≈ 0.65 µM). For the same compound, the “MIC Staphylococcus aureus (GC 4544)” value (Staphylococcus sp.; strain GC 4544) was 2 µg/mL (≈ 1.3 µM), the “MIC Staphylococcus aureus (GC 4545)” value (Staphylococcus sp.; strain GC 4545) was 1 µg/mL (≈ 0.65 µM) and the “MIC Staphylococcus haemolyticus (GC 4546)” value (Staphylococcus sp.; strain GC 4546) was 1 µg/mL (≈ 0.65 µM). The “MIC Coagulase Negative Staphylococcus (GC 4547)” value (Staphylococcus sp.; strain GC 4547) was 1 µg/mL (≈ 0.65 µM), the “MIC Coagulase Negative Staphylococcus (GC 4548)” value (Staphylococcus sp.; strain GC 4548) was 0.5 µg/mL (≈ 0.325 µM) and the “MIC Coagulase Negative Staphylococcus (GC 4549)” value (Staphylococcus sp.; strain GC 4549) was 1 µg/mL (≈ 0.65 µM). For the same compound, the “MIC Coagulase Negative Staphylococcus (GC 4551)” value (Staphylococcus sp.; strain GC 4551) was 1 µg/mL (≈ 0.65 µM), the “MIC Coagulase Negative Staphylococcus (GC 6257)” value (Staphylococcus sp.; strain GC 6257) was 0.5 µg/mL (≈ 0.325 µM) and the “MIC Staphylococcus aureus-SMITH (GC 4543)” value (Staphylococcus sp.; strain SMITH GC 4543) was 1 µg/mL (≈ 0.65 µM). The “MIC Escherichia coli (ATCC 25922)” value (Escherichia coli; strain ATCC 25922) was 32 µg/mL (≈ 20.8 µM), the “MIC Escherichia coli (GC 4559)” value (Escherichia coli; strain GC 4559) was 32 µg/mL (≈ 20.8 µM) and the “MIC Escherichia coli (GC 4560)” value (Escherichia coli; strain GC 4560) was 1 µg/mL (≈ 0.65 µM). For the same compound, the “MIC Enterococcus avium (GC 4558)” value (Enterococcus sp.; Enterococcus avium (GC 4558)) was 2 µg/mL (≈ 1.3 µM), the “MIC Enterococcus faecalis (ATCC 29212)” value (Enterococcus sp.; Enterococcus faecalis (ATCC 29212)) was 2 µg/mL (≈ 1.3 µM) and the “MIC Enterococcus faecalis (GC 2242)” value (Enterococcus sp.; Enterococcus faecalis (GC 2242)) was 4 µg/mL (≈ 2.6 µM). For the same compound, the “MIC Enterococcus faecalis (GC 2691)” value (Enterococcus sp.; Enterococcus faecalis (GC 2691)) was 4 µg/mL (≈ 2.6 µM), the “MIC Enterococcus faecalis (GC 3059)” value (Enterococcus sp.; Enterococcus faecalis (GC 3059)) was 2 µg/mL (≈ 1.3 µM) and the “MIC Enterococcus faecalis (GC 4552)” value (Enterococcus sp.; Enterococcus faecalis (GC 4552)) was 2 µg/mL (≈ 1.3 µM). For the same compound, the “MIC Enterococcus faecalis (GC 4553)” value (Enterococcus sp.; Enterococcus faecalis (GC 4553)) was 2 µg/mL (≈ 1.3 µM), the “MIC Enterococcus faecalis (GC 4554)” value (Enterococcus sp.; Enterococcus faecalis (GC 4554)) was 2 µg/mL (≈ 1.3 µM) and the “MIC Enterococcus faecalis (GC 6189)” value (Enterococcus sp.; Enterococcus faecalis (GC 6189)) was 2 µg/mL (≈ 1.3 µM). The “MIC Enterococcus faecium (GC 2243)” value (Enterococcus sp.; Enterococcus faecium (GC 2243)) was 2 µg/mL (≈ 1.3 µM), the “MIC Enterococcus faecium (GC 4556)” value (Enterococcus sp.; Enterococcus faecium (GC 4556)) was 2 µg/mL (≈ 1.3 µM) and the “MIC Enterococcus faecium (GC 4557)” value (Enterococcus sp.; Enterococcus faecium (GC 4557)) was 2 µg/mL (≈ 1.3 µM). The “MIC Enterococcus faecalis (ATCC 29212)” value (Enterococcus sp.; strain ATCC 29212) was 2 µg/mL (≈ 1.3 µM), the “MIC Enterococcus faecalis (GC 2242)” value (Enterococcus sp.; strain GC 2242) was 4 µg/mL (≈ 2.6 µM) and the “MIC Enterococcus faecium (GC 2243)” value (Enterococcus sp.; strain GC 2243) was 2 µg/mL (≈ 1.3 µM). The “MIC Enterococcus faecalis (GC 2691)” value (Enterococcus sp.; strain GC 2691) was 4 µg/mL (≈ 2.6 µM), the “MIC Enterococcus faecalis (GC 3059)” value (Enterococcus sp.; strain GC 3059) was 2 µg/mL (≈ 1.3 µM) and the “MIC Enterococcus faecalis (GC 4552)” value (Enterococcus sp.; strain GC 4552) was 2 µg/mL (≈ 1.3 µM). For the same compound, the “MIC Enterococcus faecalis (GC 4553)” value (Enterococcus sp.; strain GC 4553) was 2 µg/mL (≈ 1.3 µM), the “MIC Enterococcus faecalis (GC 4554)” value (Enterococcus sp.; strain GC 4554) was 2 µg/mL (≈ 1.3 µM) and the “MIC Enterococcus faecium (GC 4556)” value (Enterococcus sp.; strain GC 4556) was 2 µg/mL (≈ 1.3 µM). For the same compound, the “MIC Enterococcus faecium (GC 4557)” value (Enterococcus sp.; strain GC 4557) was 2 µg/mL (≈ 1.3 µM), the “MIC Enterococcus avium (GC 4558)” value (Enterococcus sp.; strain GC 4558) was 2 µg/mL (≈ 1.3 µM) and the “MIC Enterococcus faecalis (GC 6189)” value (Enterococcus sp.; strain GC 6189) was 2 µg/mL (≈ 1.3 µM).
